Data set [1] has as its system human breast carcinoma cell line MCF-7^wt. Kind of data set: Cytotoxicity, MTT cell survival. Type of data set: cell-based. The conditions noted are these: 72 hours. On the procedure:
(§1) Efficacy of the conjugate was studied on the following cell lines: human breast carcinoma cell line MCF-7^wt and resistant human breast carcinoma cell line MCF-7^AdrR; human ovary carcinoma cell line SKOV3 and resistant human ovary carcinoma cell line SKVLB; and murine melanoma cell line B16.
(§2) Study protocol was common for all test runs. The cells cultivated in plastic flasks (COSTAR) in the RPMI medium (SIGMA), which contained 10% of fetal bovine serum (SIGMA), 100 U/ml of penicillin and 100 μg/ml of streptomycin, in a wet environment of 5% CO2 at 37° C., were inoculated in 96-well plates (Costar), 10000 in each well, and studied drugs were then added at different concentrations. After that, the cells were incubated for 72 hours. Two-four hours prior to the end of the incubation period, 50 μl (1 mg/ml) of the MTT solution (3-[4,5-dimethylthiazole-2yl]-2,5-diphenyltetrazole bromide (SIGMA) in the culture medium were added in each well. After the development of coloration, the medium was removed, formazan crystals were dissolved in 150 μl of dimethyl sulfoxide, and the absorbance was measured by spectrophotometry at 540 nm. Survival rates of the cells exposed to free and conjugated DR were determined in percent relative to the survival rate of controls taken as 100%.

The subject of data set [2] is human ovary carcinoma cell line SKOV3. In words: Cytotoxicity, MTT cell survival. It counts as cell-based. As for the experimental part: as §1, §2
The subject of data set [3] is murine melanoma cell line B16. In words: Cytotoxicity, MTT cell survival. It counts as cell-based. The conditions noted are these: B16, 72 hours. On the procedure: as §1, §2
The test system of data set [4] is resistant human breast carcinoma cell line MCF-7^AdrR. Kind of data set: Cytotoxicity, MTT cell survival. Type of data set: cell-based. As to conditions: 72 hours. As for the experimental part: as §1, §2
The test system of data set [5] is resistant human ovary carcinoma cell line SKVLB. In words: Cytotoxicity, MTT cell survival. It counts as cell-based. The conditions noted are these: SKVLB^AdrR, 72 hours. On the procedure:
as §1, §2

Data set [6] deals with subcutaneously implanted line B16 cancer cells. In words: Murine implanted tumor model, intravenous administration. Type of data set: in vivo. The conditions noted are these: mice, s.c. B16, i.v. 0.2 mg/kg of doxorubicin once every four days; for Increase in ADL, %: three injections, relative to controls. As for the experimental part: The medicines were administered at a dose of 0.2 mg/kg of doxorubicin once every four days, three injections in total, starting from day 3 after the cancer implantation.

In data set [7] the test system is line NIH 3T3 murine fibroblast cells. In words: Proliferative activity, 3H-thymidine incorporation. It counts as cell-based. As to conditions: NIH 3T3 fibroblasts, 0.1-1000 ng/ml, compared with known polypeptide I (EGF fragment), FIG. 1. As for the experimental part:
Proliferative activity of the polypeptide was tested on line NIH 3T3 murine fibroplat cells. The rate of DNA biosynthesis was judged from the amount of ^3H-timidine incorporated in the […] cell fraction. Line NIH 3T3 murine fibroblast cells were cultivated in plastic flasks in the RPM1 medium (SIGMA), which contained 10% of fetal bovine serum (SIGMA), 100 U/mb of penicillin and 100 μg/ml of streptomycin, in a wet environment of 5% CO2 at 37° C. Proliferation of synchronized line NIH 3T3 fibroblasts was induced by adding to the cellular suspension the proposed polypeptide at a different concentration (0.1-1000 ng/ml). The fibroblasts were cultivated in 96-well plates in the complete medium, 200-800 cells in each well containing 200 μl of the medium. ^3H-thymidine (1 μCi/well, […]) was added 2 hours prior to the end of the incubation period. Radioactivity was measured by a scintillation counter (RACKBETA, LKB) with the use of a toluene-based scintillation fluid ZhS-8. The rate of DNA biosynthesis was expressed as the stimulation index (stimulated-to-control cell ratio) calculated by the formula: I=N/No×100%, where I is the stimulation index, N is the number of EGF-stimulated cells, and No is the number of control cells. […]
On the technique in general: Incorporation of labelled thymidine or its analogues reports DNA synthesis.

[8] abbreviates: Homo sapiens, Breast carcinoma cell.

As usually defined, the IC50 is the concentration at which inhibition is half-maximal.

Peptide text beside a SMILES is read from it. * marks the point of attachment. X1 = COc1cccc2c1C(=O)c1c(O)c3c(c(O)c1C2=O)C[C@@](O)(C(=O)CO)C[C@@H]3O[C@H]1C[C@H](N=CCCCC=N[C@@H](CCSC)C(=O)*)[C@H](O)[C@H](C)O1

Regarding `COc1cccc2c1C(=O)c1c(O)c3c(c(O)c1C2=O)C[C@@](O)(C(=O)CO)C[C@@H]3O[C@H]1C[C@H](N)[C@H](O)[C@H](C)O1` [DR, doxorubicin], the half-inhibitory concentration (IC50) in data set [1] (setting [8]) turned out to be 58.6 nM; in data set [2] (Homo sapiens, SK-OV-3, SKOV3, 72 hours), 209 nM; in data set [3] (Mus musculus), 35 nM; in data set [4] (setting [8]), 3700 nM; in data set [5] (Homo sapiens) it was 2010 nM. Further, the “ADL (average duration of life)” value in data set [6] (three injections from day 3) stood at 23.6 ± 4.0 days. For the same molecule, the “Increase in ADL, %” value in data set [6] is listed as −24.8%.
Turning to `CC[C@H](C)[C@H](NC(=O)[C@H](Cc1ccc(O)cc1)NC(=O)[C@H](CCSC)N=CCCCC=N[C@H]1C[C@H](O[C@H]2C[C@](O)(C(=O)CO)Cc3c(O)c4c(c(O)c32)C(=O)c2c(OC)cccc2C4=O)O[C@@H](C)[C@H]1O)C(=O)N[C@@H](CCC(=O)O)C(=O)N[C@@H](C)C(=O)N[C@@H](CC(C)C)C(=O)N[C@@H](CC(=O)O)C(=O)N[C@@H](CO)C(=O)N[C@@H](Cc1ccc(O)cc1)C(=O)N[C@@H](C)C(=O)N[C@@H](CS)C(=O)O` [Polypeptide-DR conjugate] (X1-YIEALDSYAC-OH), the IC50 in data set [1] turned out to be 1.3 nM; in data set [2] (SKOV3, 72 hours) it was 22 nM; in data set [3], 1.1 nM; in data set [4] it was 150 nM; in data set [5] it was 70 nM. Further, in data set [6] (three injections from day 3), the “ADL (average duration of life)” value is reported as 46.6 ± 5.7 days. Moreover, in data set [6] (three injections from day 3, compared with free DR), the “onset of tumors and their growth” value is “considerable delay in the onset of tumors and slowed their growth”. The “Increase in ADL, %” value worked out at 48.5% in data set [6] (listed as Conjugate, 0.2 mg/kg) and 46% in data set [6] (listed as conjugate, 0.2 mg/kg).
As for “NH2-Met-Tyr-Ile-Glu-Ala-Leu-Asp-Ser-Tyr-Ala-Cys-COOH (H-MYIEALDSYAC-OH) [proposed polypeptide, synthetic polypeptide H2N-…-COOH similar to EGF fragment 21 to 31, Lys replaced with Ser]”, the “proliferative effect (incorporated 3H-thymidine, stimulation index)” value in data set [7] is given as “more pronounced dose-dependent proliferative effect”.

These data come from US7368431B2, “Polypeptide, the conjugate thereof with doxorubicine and a pharmaceutical composition based thereon” (Zakrytoe Aktsionernoe Obschestvo “Russkie Biotechnologll”, priority 2001, dated 2008).
